Data reported in patent US20060265780A1, “Interaction of glyphosate with photosystem II inhibitor herbicides as a selection tool for roundup ready events” (Monsanto Technology LLC, priority 2005, published 2006).
Read-outs that look alike come from different tables or passages of the source.

How the values were obtained:
Assay type in all cases: in vivo
[1] = system: DKC 53-33 corn hybrid (NK 603 event); assay: Greenhouse glyphosate/PSII inhibitor injury assay, Example 2; conditions: single application, treated at 2 leaves unfolded (GS 12)
Experimental: (§1) Two corn seeds were planted one inch deep per 3.5×3.5 inch plastic pot filled with commercial potting mix (Redi-earth). The potting mix was supplemented with Osmacote™ 14-14-14 slow release fertilizer at 100 gm/ft3 to optimize growth. Pots were then placed in a greenhouse (25 C day/19 C night, 14 hour day) and water was supplied through subirrigation. Plants were allowed to grow to the stage where 3 leaves were unfolded (6-9 days after planting, approximate growth stage of GS 13) prior to the application of glyphosate and photosystem II inhibitor.
(§2) Herbicide treatments consisted of application of glyphosate and PSII inhibitor. Application rates for glyphosate (Roundup UltraMAX, Monsanto, St. Louis) included: 840 gm/ha; 1680 gm/ha; and 3360 gm/ha (i.e., 0.75 lbs/A; 1.5 lbs/A; and 3.0 lbs/A). Application rates for linuron (Lorox, DuPont) included 56 gm/ha; 112 gm/ha; and 224 gm/ha. Application rates for metribuzin (Sencor, Bayer) included 56 gm/ha; 112 gm/ha; and 224 gm/ha. Treatments were broadcast applied in a research track sprayer utilizing an even flat fan spray tip. Plants were returned to the greenhouse following applications. Growth inhibition was measured 10 days after treatment (DAT). […] Growth reduction can be measured about 7-10 DAT by direct or visual estimation (0=no growth reduction, 100=complete growth reduction).
(§3) Roundup Ready corn hybrids tested were RX 686Roundup Ready (GA 21 event) and DKC 53-33(NK 603 event). Growth of plant material and treatment regime was as described in Example 1, except plants were allowed to grow to the stage where 2 leaves were unfolded (approximately GS 12) prior to the application of glyphosate and photosystem II inhibitor. Growth inhibition was measured 10 days after treatment (DAT).

[2] = system: RX 686 Roundup Ready corn hybrid (GA 21 event); assay: as above; conditions: single application, treated at 2 leaves unfolded (GS 12)
Experimental: as §1, §2, §3

NK 603 corn event [3] = system: NK 603 corn event
GA 21 corn event [4] = conditions: for % Yield / % Grain Moisture: harvest, 19 locations
NK 603 corn event [5] = system: NK 603 corn event; remark: listed apart in the source
Experimental: (§4) The glyphosate tolerance of RoundUp Ready corn events NK 603 and GA 21 were characterized in field trials. Corn was planted in 36 inch rows in plots of 4 rows by 30 ft with the two center rows being harvested. The study comprised 22 locations with 4 replicates of each treatment per location and the data were pooled across locations. Corn plants were treated with glyphosate at two consecutive developmental ages of V4 and V8. Glyphosate application rates were 0.75, 1.5, and 2.23 pounds per acre (lbs/A). Application volume was 10 gallons/acre. […] Data for chlorosis, malformed leaves, and growth reduction was collected at 22 locations. Also, at harvest of mature corn plants, the yield percentage and grain moisture percentage were assessed. Data for yield and grain moisture was collected at harvest at 19 locations and expressed as the mean percentage yield or moisture with respect to controls.

GA 21 corn event [6] = system: GA 21 corn event
Experimental: as §4

[7] = glyphosate rate 0.75/0.75 (lbs/A) at V4/V8, 22 locations
[8] = glyphosate rate 0.75/0.75 at V4/V8, mean with respect to controls, harvest, 19 locations
[9] = glyphosate rate 1.5/1.5 (lbs/A) at V4/V8, 22 locations
[10] = glyphosate rate 2.25/2.25 (lbs/A) at V4/V8, 22 locations
[11] = glyphosate rate 2.25/2.25 at V4/V8, locations with injury greater than 9%
[12] = glyphosate rate 2.25/2.25 at V4/V8, mean with respect to controls, harvest, 19 locations
[13] = glyphosate rate 1.5/1.5 at V4/V8, locations with injury greater than 9%
[14] = glyphosate rate 2.25/2.25 at V4/V8, mean with respect to controls
[15] = NK 603, glyphosate rate 0.75/0.75 (lbs/A) at V4/V8, 22 locations
[16] = NK 603, glyphosate rate 1.5/1.5 (lbs/A) at V4/V8, 22 locations
[17] = NK 603, glyphosate rate 1.5/1.5 at V4/V8, mean with respect to controls, harvest, 19 locations

Structure (SMILES): O=C(O)CNCP(=O)(O)O [glyphosate, N-phosphonomethylglycine]
- crop injury [1]: did not produce any discernable crop injury
- crop injury [2]: did not produce any discernable crop injury
- % Growth Reduction 10 DAT: number of locations exhibiting injury greater than 9% (NK 603 corn event [3]; [7]): None
- % Growth Reduction 30 DAT: number of locations exhibiting injury greater than 9% (NK 603 corn event [3]; [7]): None
- % Grain Moisture (NK 603 corn event [3]; [8]): 100.2%
- % Growth Reduction 10 DAT: number of locations exhibiting injury greater than 9% (NK 603 corn event [3]; [9]): None
- % Malform 10 DAT: number of locations exhibiting injury greater than 9% (NK 603 corn event [3]; [9]): 3
- % Chlorosis 10 DAT: number of locations exhibiting injury greater than 9% (NK 603 corn event [3]; [10]): 3
- % Growth Reduction 10 DAT: number of locations exhibiting injury greater than 9% (NK 603 corn event [3]; [10]): 3
- % Growth Reduction 30 DAT: number of locations exhibiting injury greater than 9% (NK 603 corn event [3]; [10]): 2
- % Malform 10 DAT: number of locations exhibiting injury greater than 9% (NK 603 corn event [3]; [10]): 6
- % Chlorosis 10 DAT: percentage range of observed injury (NK 603 corn event [3]; [11]): 11-19%
- % Growth Reduction 10 DAT: percentage range of observed injury (NK 603 corn event [3]; [11]): 10-19%
- % Growth Reduction 30 DAT: percentage range of observed injury (NK 603 corn event [3]; [11]): 11-15%
- % Malform 10 DAT: percentage range of observed injury (NK 603 corn event [3]; [11]): 11-19%
- % Grain Moisture (NK 603 corn event [3]; [12]): 103.1%
- % Yield (NK 603 corn event [3]; [12]): 96.6%
- % Growth Reduction 10 DAT: number of locations exhibiting injury greater than 9% (GA 21 corn event [4]; [7]): None
- % Growth Reduction 30 DAT: number of locations exhibiting injury greater than 9% (GA 21 corn event [4]; [7]): None
- % Yield (GA 21 corn event [4]; glyphosate rate 0.75/0.75 at V4/V8, mean with respect to controls): 101.8%
- % Chlorosis 10 DAT: number of locations exhibiting injury greater than 9% (GA 21 corn event [4]; [9]): 3
- % Growth Reduction 10 DAT: number of locations exhibiting injury greater than 9% (GA 21 corn event [4]; [9]): 5
- % Malform 10 DAT: number of locations exhibiting injury greater than 9% (GA 21 corn event [4]; [9]): 5
- % Chlorosis 10 DAT: percentage range of observed injury (GA 21 corn event [4]; [13]): 10-14%
- % Malform 10 DAT: percentage range of observed injury (GA 21 corn event [4]; [13]): 11-16%
- % Grain Moisture (GA 21 corn event [4]; glyphosate rate 1.5/1.5 at V4/V8, mean with respect to controls): 101.0%
- % Chlorosis 10 DAT: number of locations exhibiting injury greater than 9% (GA 21 corn event [4]; [10]): 3
- % Growth Reduction 10 DAT: number of locations exhibiting injury greater than 9% (GA 21 corn event [4]; [10]): 7
- % Growth Reduction 30 DAT: number of locations exhibiting injury greater than 9% (GA 21 corn event [4]; [10]): 4
- % Malform 10 DAT: number of locations exhibiting injury greater than 9% (GA 21 corn event [4]; [10]): 6
- % Growth Reduction 10 DAT: percentage range of observed injury (GA 21 corn event [4]; [11]): 11-30%
- % Malform 10 DAT: percentage range of observed injury (GA 21 corn event [4]; [11]): 10-33%
- % Grain Moisture (GA 21 corn event [4]; [14]): 101.6%
- % Yield (GA 21 corn event [4]; [14]): 90.8%
- % Chlorosis 10 DAT: number of locations exhibiting injury greater than 9% (NK 603 corn event [5]; [15]): None
- % Malform 10 DAT: number of locations exhibiting injury greater than 9% (NK 603 corn event [5]; [15]): None
- % Yield (NK 603 corn event [5]; NK 603, glyphosate rate 0.75/0.75 at V4/V8, mean with respect to controls, harvest, 19 locations): 103.3%
- % Chlorosis 10 DAT: number of locations exhibiting injury greater than 9% (NK 603 corn event [5]; [16]): None
- % Growth Reduction 30 DAT: number of locations exhibiting injury greater than 9% (NK 603 corn event [5]; [16]): None
- % Malform 10 DAT: percentage range of observed injury (NK 603 corn event [5]; NK 603, glyphosate rate 1.5/1.5 at V4/V8, locations with injury greater than 9%): 10-11%
- % Grain Moisture (NK 603 corn event [5]; [17]): 101.7%
- % Yield (NK 603 corn event [5]; [17]): 99.4%
- injury (NK 603 corn event [5]; glyphosate applications up to 3360 gm/ha, even applied sequentially, NK 603 event (e.g. DKC 53-33 hybrid)): no injury
- % Chlorosis 10 DAT: number of locations exhibiting injury greater than 9% (GA 21 corn event [6]; [7]): None
- % Malform 10 DAT: number of locations exhibiting injury greater than 9% (GA 21 corn event [6]; [7]): None
- % Grain Moisture (GA 21 corn event [6]; [8]): 100.7%
- % Growth Reduction 30 DAT: number of locations exhibiting injury greater than 9% (GA 21 corn event [6]; [9]): 1
- % Growth Reduction 10 DAT: percentage range of observed injury (GA 21 corn event [6]; [13]): 10-14%
- % Growth Reduction 30 DAT: percentage range of observed injury (GA 21 corn event [6]; [13]): 11%
- % Yield (GA 21 corn event [6]; glyphosate rate 1.5/1.5 at V4/V8, mean with respect to controls, harvest, 19 locations): 97.8%
- % Chlorosis 10 DAT: percentage range of observed injury (GA 21 corn event [6]; [11]): 11-21%
- % Growth Reduction 30 DAT: percentage range of observed injury (GA 21 corn event [6]; [11]): 10-13%

Structure (SMILES): CSc1nnc(C(C)(C)C)c(=O)n1N [metribuzin]
- crop injury [1]: did not produce any discernable crop injury
- crop injury [2]: did not produce any discernable crop injury

Structure (SMILES): CON(C)C(=O)Nc1ccc(Cl)c(Cl)c1 [linuron]
- crop injury [1]: did not produce any discernable crop injury
- crop injury [2]: did not produce any discernable crop injury
